Laboratory results from US20210040074A1 (The United States of America,as represented by the …, priority 2018, published 2021).
Where “and” joins values, the source holds several entries; their conditions need not be identical. Identical values can stand only once.

Columns and labels:
D2R = D2R (Homo sapiens, UniProt P14416); assay: D2R β-arrestin BRET assay; conditions: 50 μM compound
Method: (§2) Bioluminescence Resonance Energy Transfer (BRET) Assays. Experiments were performed in HEK239 cells transiently transfected with D1R-RLuc8 and β-arrestin-mVenus (β-arrestin BRET) or Gαs-mVenus+β1+γ2 (Gs BRET) using the polyethylenimine (PEI) transfection method. […] Appropriate amounts of DNA were combined with 3 μg/μL PEI per μg of DNA in nonsupplemented DMEM and incubated with the cells overnight. Experiments were performed 48 hours post-transfection. On experiment day, cells were collected and resuspended in Dulbecco's Phosphate-Buffered Saline (DPBS) with Ca2+ and Mg2++0.2 mM sodium metabisulfite+5.5 mM glucose.

D5 [1] = molecular target: T1, D5 (Homo sapiens, UniProt P21918); assay: D5R β-arrestin recruitment assay (DiscoverX PathHunter, CHO cells); assay type: cell-based; parameters: host or cells: CHO-K1; conditions: for D5 Beta-Arrestin: DA + 50 μM PAM, Fold Change EC50: fold change of dopamine EC50, 50 μM compound; for agonist response of PAM alone at D5R: in the absence of DA
T1 sequence (P21918 whole entry): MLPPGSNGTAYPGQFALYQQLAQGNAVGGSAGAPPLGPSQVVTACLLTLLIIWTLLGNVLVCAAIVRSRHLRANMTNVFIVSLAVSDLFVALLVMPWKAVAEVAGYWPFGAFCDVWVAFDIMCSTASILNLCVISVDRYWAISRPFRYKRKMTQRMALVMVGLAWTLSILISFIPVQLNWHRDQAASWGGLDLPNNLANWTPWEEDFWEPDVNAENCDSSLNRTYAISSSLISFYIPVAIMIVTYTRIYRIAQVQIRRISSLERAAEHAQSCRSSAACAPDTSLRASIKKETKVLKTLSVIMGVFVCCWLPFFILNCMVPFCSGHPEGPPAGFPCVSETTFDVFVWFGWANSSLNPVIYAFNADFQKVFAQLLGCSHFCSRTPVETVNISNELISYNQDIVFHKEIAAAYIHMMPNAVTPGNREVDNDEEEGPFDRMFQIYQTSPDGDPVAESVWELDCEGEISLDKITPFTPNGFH
Method: (§1) β-arrestin Recruitment Assay. […] Following 18-24 h of incubation, the cells were treated with the indicated concentrations of compound in PBS buffer containing 0.2 mM sodium metabisulfite, and incubated at 37° C. for 90 min. DiscoverX reagent was added to cells according to the manufacturer's protocol, followed by a 60 min incubation in the dark at room temperature. Luminescence was measured on a Hamamatsu FDSS μ-Cell reader (Hamamatsu, Bridgewater, N.J.) and data were collected using the FDSS software.
Each PAM was also examined in the absence of DA as an agonist, as indicated.

D5 [2] = molecular target: T1, D5; assay: D5 cAMP assay; conditions: fold change of dopamine EC50, 50 μM compound
Method: (§3) cAMP Accumulation Assay. Assays were performed on D1R-HEK293 (Codex Biosolutions, Gaithersburg, Md.) cells stably expressing the human D1R. HEK293 cell lines were maintained in Dulbecco's modified Eagles medium, supplemented with 10% fetal bovine serum, 100 U/ml penicillin, 100 μg/ml streptomycin, 1 mM sodium pyruvate, and 250 μg/ml G418 and incubated at 37° C., 5% CO2, and 90% humidity. […] After 18-24 h incubation at 37° C., 5% CO2, and 90% humidity, the media was removed and replaced with 5 μL/well PBS. […] Briefly, antibody and working solution was added to each well according to the manufacturer's protocol, and incubated in the dark at room temperature for 60 min. Following incubation, enzyme acceptor reagent was added to the plates and luminescence (RLU) was measured (FDSS μCell, Hamamatsu Photonics K. K., Bridgewater, N.J.) following a 3 h incubation in the dark at room temperature.

human D1R [3] = molecular target: T2, human D1R (Homo sapiens, UniProt P21728); assay: D1 cAMP accumulation assay (D1R-HEK293 cells, DiscoverX HitHunter); conditions: for increase in dopamine potency for cAMP accumulation: 50 μM compound vs DA alone; for agonist activity for cAMP accumulation: compound alone; for D1 cAMP: DA + 50 μM PAM, Fold Chg EC50: fold change of dopamine EC50, 50 μM compound
T2 sequence (P21728 whole entry): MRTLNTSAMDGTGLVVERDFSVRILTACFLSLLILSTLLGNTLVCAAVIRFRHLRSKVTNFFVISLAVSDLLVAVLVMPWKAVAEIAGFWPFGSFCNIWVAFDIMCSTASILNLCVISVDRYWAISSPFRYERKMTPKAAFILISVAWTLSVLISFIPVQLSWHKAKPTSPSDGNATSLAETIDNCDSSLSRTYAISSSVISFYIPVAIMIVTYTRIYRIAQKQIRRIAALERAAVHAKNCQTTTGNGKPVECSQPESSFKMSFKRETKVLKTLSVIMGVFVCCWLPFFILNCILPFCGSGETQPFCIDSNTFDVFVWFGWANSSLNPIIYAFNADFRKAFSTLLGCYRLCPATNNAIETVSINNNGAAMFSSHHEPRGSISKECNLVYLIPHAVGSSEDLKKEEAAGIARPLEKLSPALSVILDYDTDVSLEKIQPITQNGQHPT
Method: as §3

D3R = D3R (Homo sapiens, UniProt P35462); assay: D3R β-arrestin BRET assay; conditions: 50 μM compound
Chain of D3R (P35462 whole entry): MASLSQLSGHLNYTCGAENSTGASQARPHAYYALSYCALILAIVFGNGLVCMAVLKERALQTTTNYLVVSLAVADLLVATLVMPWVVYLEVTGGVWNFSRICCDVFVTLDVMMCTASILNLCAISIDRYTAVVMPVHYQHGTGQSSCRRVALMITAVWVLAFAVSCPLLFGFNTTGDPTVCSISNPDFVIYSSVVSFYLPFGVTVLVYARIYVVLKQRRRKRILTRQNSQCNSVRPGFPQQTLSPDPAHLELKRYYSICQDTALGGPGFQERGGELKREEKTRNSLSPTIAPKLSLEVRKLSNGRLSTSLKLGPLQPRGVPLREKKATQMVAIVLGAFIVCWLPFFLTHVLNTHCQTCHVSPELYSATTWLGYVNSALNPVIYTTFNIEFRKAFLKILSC
Method: as §2

human D1R [4] = molecular target: T2, human D1R; assay: [3H]-SCH23390 radioligand competition binding (HEK293 D1R membranes), incl. allosteric ternary complex model; conditions: for log α / α (binding cooperativity between PAM and dopamine): allosteric ternary complex model; for effect on [3H]-SCH23390 binding: compound alone, up to 50 μM; for leftward shift of dopamine competition curve (increase in dopamine affinity): dopamine competition with [3H]-SCH23390, increasing concentrations of compound; for decrease of [3H]-SCH23390 binding: highest concentration tested, 50 μM
D4R [5] = molecular target: T3, D4R (Homo sapiens, UniProt P21917); assay: D4R β-arrestin BRET assay; conditions: 50 μM compound
T3 sequence (P21917 1-419): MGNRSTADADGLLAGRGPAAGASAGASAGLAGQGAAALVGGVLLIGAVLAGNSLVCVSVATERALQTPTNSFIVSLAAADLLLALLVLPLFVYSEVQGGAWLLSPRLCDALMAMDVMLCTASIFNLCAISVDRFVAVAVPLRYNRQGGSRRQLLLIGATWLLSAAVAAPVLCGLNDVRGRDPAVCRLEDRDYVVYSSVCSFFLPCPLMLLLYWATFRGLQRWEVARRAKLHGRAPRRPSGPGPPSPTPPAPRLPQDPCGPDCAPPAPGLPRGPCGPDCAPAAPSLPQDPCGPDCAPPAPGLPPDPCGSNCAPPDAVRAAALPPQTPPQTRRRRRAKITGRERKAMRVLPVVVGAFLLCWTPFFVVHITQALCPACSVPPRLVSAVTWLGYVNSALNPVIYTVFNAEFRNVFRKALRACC
Method: as §2

human D1R [6] = molecular target: T2, human D1R; assay: D1R β-arrestin recruitment assay (DiscoverX PathHunter, CHO-K1 cells); parameters: Emax: dose or concentration left out as unconfirmed; conditions: for increase in dopamine potency (EC50) for β-arrestin recruitment to D1R: 50 μM compound vs DA alone; for Emax: CHO-K1, read-out: increase in dopamine efficacy (Emax) for β-arrestin recruitment to D1R; for agonist activity of PAM alone, β-arrestin recruitment: concentration response with the PAM, no dopamine; for effect on potency of D1R partial agonists: fenoldopam, apomorphine, SKF38393, SKF77434; for D1 Beta-Arrestin: DA + 50 μM PAM, Fold Chg EC50: fold change of dopamine EC50, 50 μM compound; for log β (modulatory effect on dopamine efficacy) / β (modulatory effect on dopamine efficacy): operational model of allosterism; for increase in SKF77434-stimulated response: partial agonist SKF77434 + PAM, text says cAMP accumulation, FIG. 5D legend β-arrestin; for increase in efficacy of SKF38393 / increase in efficacy of apomorphine / increase in efficacy of fenoldopam: β-arrestin recruitment; for increase in efficacy of SKF38393: G-protein biased partial agonist SKF38393 + PAM; for increase in efficacy of apomorphine: partial agonist apomorphine + PAM; for increase in efficacy of fenoldopam: partial agonist fenoldopam + PAM
Source text: The DiscoverX PathHunter β-Arrestin Assay was used to measure β-arrestin reuitment to the D1R following the manufacturer's instructions.

[7] = test system: non D1R containing control cells; assay: Forskolin stimulated cAMP accumulation in non D1R containing control cells; assay type: cell-based
D4R [8] = molecular target: T3, D4R; assay: D4 β-arrestin recruitment assay (DiscoverX PathHunter, CHO-K1 cells); assay type: cell-based; parameters: inferred from the same PathHunter system described for D1R and D5R; host or cells: CHO-K1; conditions: for D4 Beta-Arrestin: DA + 50 μM PAM, Fold Change EC50: fold change of dopamine EC50, 50 μM compound
Method: as §1, with “Assay. Agonist-mediated recruitment of β-arrestin-2 to all five DARs was determined using the DiscoveRx PathHunter complementation assay (DiscoverX Inc, Fremont, Calif.), as previously described (Free, et. al., 2014; Conroy, et. al., 2015).” for “Assay.”

β2AR = β2AR (Homo sapiens, UniProt P07550); assay: β2AR β-arrestin BRET assay; conditions: 50 μM compound
Chain of β2AR (P07550 whole entry): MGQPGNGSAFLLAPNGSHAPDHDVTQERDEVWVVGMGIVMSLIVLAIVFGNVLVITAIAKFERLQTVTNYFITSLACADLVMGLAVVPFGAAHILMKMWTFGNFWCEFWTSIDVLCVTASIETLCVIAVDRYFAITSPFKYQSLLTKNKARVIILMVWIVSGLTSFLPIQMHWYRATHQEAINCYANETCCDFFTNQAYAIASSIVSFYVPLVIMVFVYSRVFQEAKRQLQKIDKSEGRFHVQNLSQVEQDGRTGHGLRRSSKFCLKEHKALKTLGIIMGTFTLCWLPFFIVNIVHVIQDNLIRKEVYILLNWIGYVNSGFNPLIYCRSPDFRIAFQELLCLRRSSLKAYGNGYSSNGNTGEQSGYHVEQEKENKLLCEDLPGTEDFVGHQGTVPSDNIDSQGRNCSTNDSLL
Method: as §2

Chain of D2R (P14416 whole entry): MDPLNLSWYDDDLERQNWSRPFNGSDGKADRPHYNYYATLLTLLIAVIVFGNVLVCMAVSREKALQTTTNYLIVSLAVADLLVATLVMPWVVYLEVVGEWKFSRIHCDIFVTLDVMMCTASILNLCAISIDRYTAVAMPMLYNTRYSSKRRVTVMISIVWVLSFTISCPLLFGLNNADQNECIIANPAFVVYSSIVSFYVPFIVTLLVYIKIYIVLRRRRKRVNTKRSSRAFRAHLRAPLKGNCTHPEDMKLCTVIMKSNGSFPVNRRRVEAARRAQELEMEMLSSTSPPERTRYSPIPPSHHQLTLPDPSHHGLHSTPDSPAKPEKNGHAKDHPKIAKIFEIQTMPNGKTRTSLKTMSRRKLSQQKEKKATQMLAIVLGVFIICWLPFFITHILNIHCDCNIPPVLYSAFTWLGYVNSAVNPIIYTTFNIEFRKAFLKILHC

Row | Compound | potentiation of dopamine response at D2R (D2R) | D5 Beta-Arrestin: DA + 50 μM PAM, Fold Change EC50 (D5 [1]) | agonist response of PAM alone at D5R (D5 [1]) | D5 cAMP: DA + 50 μM PAM, Fold Change EC50 (D5 [2]) | increase in dopamine potency for cAMP accumulation (human D1R [3]) | agonist activity for cAMP accumulation (human D1R [3]) | D1 cAMP: DA + 50 μM PAM, Fold Chg EC50 (human D1R [3]) | potentiation of dopamine response at D3R (D3R) | Kb (human D1R [4]) [nM] | log α (human D1R [4]) | α (binding cooperativity between PAM and dopamine) (human D1R [4]) | effect on [3H]-SCH23390 binding (human D1R [4]) | leftward shift of dopamine competition curve (increase in dopamine affinity) (human D1R [4]) [fold] | decrease of [3H]-SCH23390 binding (human D1R [4]) [%] | potentiation of dopamine response at D4R (D4R [5]) | Kb (human D1R [6]) [nM] | increase in dopamine potency (EC50) for β-arrestin recruitment to D1R (human D1R [6]) | Emax (human D1R [6]) [%] | agonist activity of PAM alone, β-arrestin recruitment (human D1R [6]) | effect on potency of D1R partial agonists (human D1R [6]) | also measured
1 | Cn1c2ccccc2c(=O)c2c(=O)n(-c3ccccc3)c(C3CCCCC3)nc21 [Compound 1, 2-Cyclohexyl-10-methyl-3-phenylpyrimido[4,5-b]quinoline-4,5(3H,10H)-dione] | Neither PAM produced any measurable potentiation | 2.56 | Neither PAM produced an agonist response | 2.14 | 3 fold | Neither compound 1 (FIGS. 3A and 3B) nor compound 28 (FIGS. 3C and 3D) demonstrated any agonist activity | 1.83 | Neither PAM produced any measurable potentiation | 540 | 0.49±0.07 | 3.09 | no displacement | ~3 | ~17 | Neither PAM produced any measurable potentiation | 460 | 7 fold and 5 fold and 4.6 fold | 20 | Neither PAM displayed any measurable agonist activity | Neither PAM altered the potency | fold change of dopamine EC50 for β-arrestin recruitment to D5R (D5 [1]; 50 μM compound): 2.5 fold; Dopamine D5-β-arrestin Assay: DA + 50 μM PAM, Fold Change EC50 (D5 [1]; Table 6, 50 μM compound): 2.56; Dopamine D1-β-arrestin Assay: DA + 50 μM PAM, Fold Change EC50 (human D1R [6]; Table 5, 50 μM compound): 4.64; D1 Beta-Arrestin: DA + 50 μM PAM, Fold Chg EC50 (human D1R [6]): 4.64; log β (modulatory effect on dopamine efficacy) (human D1R [6]): 0.41±0.06; β (modulatory effect on dopamine efficacy) (human D1R [6]): 2.57; increase in SKF77434-stimulated response (human D1R [6]): 130%; increase in efficacy of SKF38393 (human D1R [6]): 111%; increase in efficacy of apomorphine (human D1R [6]): 95%; increase in efficacy of fenoldopam (human D1R [6]): 48%; effect on forskolin stimulated cAMP accumulation [7]: does not significantly increase; Dopamine D4-β-arrestin Assay: DA + 50 μM PAM, Fold Change EC50 (D4R [8]; Table 7, 50 μM compound): 1.06; D4 Beta-Arrestin: DA + 50 μM PAM, Fold Change EC50 (D4R [8]): 1.06; potentiation of epinephrine response at β2AR (β2AR): Neither PAM produced any measurable potentiation
2 | CC(C)(C)C1CCc2c(sc(NC(=O)c3ccncc3)c2C(N)=O)C1 (centres unmarked) [Compound 28] | Neither PAM produced any measurable potentiation | 1.25 | Neither PAM produced an agonist response | 1.63 | 5 fold and 4 fold | Neither compound 1 (FIGS. 3A and 3B) nor compound 28 (FIGS. 3C and 3D) demonstrated any agonist activity | 2.93 | Neither PAM produced any measurable potentiation | 5370 | 0.82±0.11 | 6.61 | complete inhibition | ~7 | ~66 | Neither PAM produced any measurable potentiation | 5400 | 8 fold | 34 | Neither PAM displayed any measurable agonist activity | Neither PAM altered the potency | D1 Beta-Arrestin: DA + 50 μM PAM, Fold Chg EC50 (human D1R [6]): 8.29; log β (modulatory effect on dopamine efficacy) (human D1R [6]): 0.32±0.1; β (modulatory effect on dopamine efficacy) (human D1R [6]): 2.09; increase in SKF77434-stimulated response (human D1R [6]): 96%; increase in efficacy of SKF38393 (human D1R [6]): 151%; increase in efficacy of apomorphine (human D1R [6]): 134%; increase in efficacy of fenoldopam (human D1R [6]): 83%; effect on forskolin stimulated cAMP accumulation [7]: no increase; D4 Beta-Arrestin: DA + 50 μM PAM, Fold Change EC50 (D4R [8]): 1.72; potentiation of epinephrine response at β2AR (β2AR): Neither PAM produced any measurable potentiation
3 | CC(C)(C)C1CCc2c(sc(NC(=O)c3cccnc3)c2C(N)=O)C1 (centres unmarked) [Example 2.3, N-(6-(Tert-butyl)-3-carbamoyl-4,5,6,7-tetrahydrobenzo[b]thiophen-2-yl)nicotinamide] |  |  |  |  |  |  |  |  |  |  |  |  |  |  |  |  |  |  |  |  | melting point: 195 to 209 °C
